The supplement of paper PMC10627819

Columns and labels:
S. pneumoniae D39V [1] = assay: fitness (endpoint OD595 vs no drug) (fraction); higher = more growth
Summary of the method: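 At 37 °C, bacteria in TSB, LB Lennox or CY were grown in 384-well plates from a starting OD595 of 0.01. OD595 was measured every 30 min for 14 h, with the first reading used as background. Fitness is the optical density at the switch to stationary phase as a fraction of the robust mean of no-drug control wells, capped at 1.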

B. subtilis 168 = assay: Bliss interaction score (quartile over a dose matrix) (fitness difference); higher = more antagonism (negative = synergy)
Summary of the method: (§1)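 Fitness was OD595 at entry into stationary phase divided by the plate's robust no-drug mean and capped at 1; single-drug fitness was inferred from combination data. The Bliss score is observed minus expected (product) fitness, summarised by quartiles over technical, biological and donor/recipient replicates.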

S. aureus DSM 20231 = assay: as above
Summary of the method: as §1

S. aureus Newman = assay: as above
Summary of the method: as §1

S. pneumoniae D39V [2] = assay: as above
Summary of the method: as §1
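Wherever Bliss interaction score (quartile over a dose matrix) is given: first quartile when negative (synergy) and third quartile when positive (antagonism).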

CC[C@H]1OC(=O)[C@H](C)[C@@H](O[C@H]2C[C@@](C)(OC)[C@@H](O)[C@H](C)O2)[C@H](C)[C@@H](O[C@@H]2O[C@H](C)C[C@H](N(C)C)[C@H]2O)[C@](C)(OC)C[C@@H](C)C(=O)[C@H](C)[C@@H](O)[C@]1(C)O [Clarithromycin] + Clc1ccc(COC(Cn2ccnc2)c2ccc(Cl)cc2Cl)c(Cl)c1 [Miconazole]
fitness, S. pneumoniae D39V [1], one replicate
Conditions | first compound 0.007812 µg/mL | first compound 0.01562 µg/mL | first compound 0.03125 µg/mL
partner 1.25 µg/mL | 0.924 | 0.848 | 0.664
partner 2.5 µg/mL | 0.9 | 0.855 | 0.66
partner 5 µg/mL | 0.869 | 0.847 | 0.556

S. pneumoniae D39V [1]
Conditions | fitness
first compound 0.0625 µg/mL, partner 1.073 µg/mL | 0.747
first compound 0.0625 µg/mL, partner 2.145 µg/mL | 0.638
first compound 0.0625 µg/mL, partner 4.29 µg/mL | 0.635
first compound 0.07 µg/mL, partner 1.25 µg/mL | 0.167
first compound 0.07 µg/mL, partner 2.5 µg/mL | 0.185
first compound 0.07 µg/mL, partner 5 µg/mL | 0.107
first compound 0.125 µg/mL, partner 4.29 µg/mL | 0.448
first compound 0.14 µg/mL, partner 1.25 µg/mL | 0.117
first compound 0.14 µg/mL, partner 2.5 µg/mL | 0.151
first compound 0.14 µg/mL, partner 5 µg/mL | 0.0925
first compound 0.25 µg/mL, partner 1.073 µg/mL | 0.0979
first compound 0.25 µg/mL, partner 2.145 µg/mL | 0.0742
first compound 0.25 µg/mL, partner 4.29 µg/mL | 0.218
first compound 0.28 µg/mL, partner 1.25 µg/mL | 0.0568
first compound 0.28 µg/mL, partner 2.5 µg/mL | 0.122
first compound 0.28 µg/mL, partner 5 µg/mL | 0.0835

Conditions | Bliss interaction score
B. subtilis 168 | 0.0897
S. aureus DSM 20231 | 0.0854
S. aureus Newman | 0.0558
S. pneumoniae D39V [2] | 0.0979

CC[C@H]1OC(=O)[C@H](C)[C@@H](O[C@H]2C[C@@](C)(OC)[C@@H](O)[C@H](C)O2)[C@H](C)[C@@H](O[C@@H]2O[C@H](C)C[C@H](N(C)C)[C@H]2O)[C@](C)(OC)C[C@@H](C)C(=O)[C@H](C)[C@@H](O)[C@]1(C)O [Clarithromycin] + Cn1nnc(-c2ccc(-c3ccc(N4C[C@H](CO)OC4=O)cc3F)cn2)n1 [Tedizolid]
fitness, S. pneumoniae D39V [1], one replicate
Conditions | first compound 0.007812 µg/mL | first compound 0.01562 µg/mL | first compound 0.03125 µg/mL
partner 0.125 µg/mL | 0.739 | 0.692 | 0.639
partner 0.25 µg/mL | 0.701 | 0.685 | 0.686
partner 0.5 µg/mL | 0.373 | 0.381 | 0.353

fitness, S. pneumoniae D39V [1]
Conditions | first compound 0.0625 µg/mL | first compound 0.07 µg/mL | first compound 0.125 µg/mL | first compound 0.14 µg/mL | first compound 0.25 µg/mL | first compound 0.28 µg/mL
partner 0.03125 µg/mL | 0.715 | – | 0.544 | – | 0.317 | –
partner 0.0625 µg/mL | 0.727 | – | 0.571 | – | 0.336 | –
partner 0.125 µg/mL | 0.666 | 0.0645 | 0.511 | 0.053 | 0.275 | 0.0588
partner 0.25 µg/mL | – | 0.0475 | – | 0.0527 | – | 0.0319
partner 0.5 µg/mL | – | 0.0477 | – | 0.0537 | – | 0.0347

Conditions | Bliss interaction score
B. subtilis 168 | -0.0452
S. aureus DSM 20231 | -0.109
S. aureus Newman | -0.106
S. pneumoniae D39V [2] | 0.0824

CC[C@H]1OC(=O)[C@H](C)[C@@H](O[C@H]2C[C@@](C)(OC)[C@@H](O)[C@H](C)O2)[C@H](C)[C@@H](O[C@@H]2O[C@H](C)C[C@H](N(C)C)[C@H]2O)[C@](C)(OC)C[C@@H](C)C(=O)[C@H](C)[C@@H](O)[C@]1(C)O [Clarithromycin] + O=C1CN(/N=C/c2ccc([N+](=O)[O-])o2)C(=O)N1 [Nitrofurantoin]
fitness, S. pneumoniae D39V [1], one replicate
Conditions | first compound 0.007812 µg/mL | first compound 0.01562 µg/mL | first compound 0.03125 µg/mL | first compound 0.0625 µg/mL | first compound 0.125 µg/mL | first compound 0.25 µg/mL
partner 2 µg/mL | 0.879 | 0.802 | 0.627 | – | – | –
partner 4 µg/mL | 0.862 | 0.788 | 0.643 | – | – | –
partner 5.14 µg/mL | – | – | – | 0.402 | 0.214 | 0.146
partner 8 µg/mL | 0.744 | 0.678 | 0.556 | – | – | –

fitness, S. pneumoniae D39V [1]
Conditions | first compound 0.0625 µg/mL | first compound 0.07 µg/mL | first compound 0.125 µg/mL | first compound 0.14 µg/mL | first compound 0.25 µg/mL | first compound 0.28 µg/mL
partner 1.285 µg/mL | 0.636 | – | 0.263 | – | 0.104 | –
partner 2 µg/mL | – | 0.0417 | – | 0.0458 | – | 0.0401
partner 2.57 µg/mL | 0.59 | – | 0.199 | – | 0.0984 | –
partner 4 µg/mL | – | 0.0482 | – | 0.0382 | – | 0.0171
partner 8 µg/mL | – | 0.0337 | – | 0.0552 | – | 0.0141

Conditions | Bliss interaction score
B. subtilis 168 | -0.0776
S. aureus DSM 20231 | -0.04
S. aureus Newman | -0.117
S. pneumoniae D39V [2] | -0.0986

CC[C@H]1OC(=O)[C@H](C)[C@@H](O[C@H]2C[C@@](C)(OC)[C@@H](O)[C@H](C)O2)[C@H](C)[C@@H](O[C@@H]2O[C@H](C)C[C@H](N(C)C)[C@H]2O)[C@](C)(OC)C[C@@H](C)C(=O)[C@H](C)[C@@H](O)[C@]1(C)O [Clarithromycin] + O=C(O[C@@H]1Cc2c(O)cc(O)cc2O[C@@H]1c1cc(O)c(O)c(O)c1)c1cc(O)c(O)c(O)c1 [EGCG]
fitness, S. pneumoniae D39V [1], one replicate
Conditions | first compound 0.007812 µg/mL | first compound 0.01562 µg/mL | first compound 0.03125 µg/mL
partner 12.5 µg/mL | 0.808 | 0.8 | 0.635
partner 25 µg/mL | 0.847 | 0.762 | 0.609
partner 50 µg/mL | 0.827 | 0.77 | 0.614

fitness, S. pneumoniae D39V [1]
Conditions | first compound 0.0625 µg/mL | first compound 0.07 µg/mL | first compound 0.125 µg/mL | first compound 0.14 µg/mL | first compound 0.25 µg/mL | first compound 0.28 µg/mL
partner 12.5 µg/mL | 0.457 | 0.123 | 0.241 | 0.0422 | 0.0839 | 0.0515
partner 25 µg/mL | 0.493 | 0.115 | 0.25 | 0.0716 | 0.0874 | 0.0518
partner 50 µg/mL | 0.383 | 0.144 | 0.373 | 0.0769 | 0.122 | 0.0507

Conditions | Bliss interaction score
B. subtilis 168 | 0.0404
S. aureus DSM 20231 | 0.109
S. aureus Newman | 0.132
S. pneumoniae D39V [2] | -0.0473
